Source: patent publication US20030165853A1, “Antisense imaging of gene expression of the brain in vivo” (The Regents of the University of California Office of …, priority 2000, published 2003)

Tests used:
[1] = test system: C6-790 cells; test: Uptake of [125I]PNA tracers in cultured C6-790 cells; type: cell-based, rat; conditions: 2-24 h incubation, TCA-precipitable cellular fraction
Procedure: (§1) The uptake of ^125I-labeled antirev or antiluciferase PNA was investigated in C6-790 and C6 cells in the presence or absence of OX26/SA. Cells were grown in 24 well dishes and incubated with 5 μCi/ml (12 nM) [^125I]PNA with and without OX26/SA (1:1 molar ratio) for 2, 4, 6, or 24 h. The monolayers were then washed 3 times in 2.5 ml cold PBS (10 mM phosphate buffer, pH 7.2/150 mM NaCl) and lysed with 250 μl reporter lysis buffer (Promega), as previously described (Boado and Pardridge (1998) Mol. Brain Res. 59: 109-113). Aliquots of samples (100 μl) and standards (10 μl) were precipitated with TCA, and the percent of medium PNA that was taken up into the TCA-precipitable cellular fraction was measured and expressed either as nanograms PNA per milligram protein or percentage uptake per milligram protein. Twenty-microliter lysate aliquots were also resolved by SDS in a 12% gel. Gels were fixed in 50% MeOH and 10% acetic acid solution for 30 min, incubated in 7% MeOH, 7% acetic acid and 1% glycerol for 5 min, and dried before autoradiography with Kodak BioMax film and intensifying screens. For the pulse-chase study, either control C6 or C6-790 cells were incubated as described above with 10 μCi/ml (24 nM) [^125I]antiluciferase PNA conjugated to OX26SA for 24 h. […] TCA-precipitable cellular radioactivity was then measured at 0, 2, 6, or 24 h of incubation.

[2] = test system: C6 cells; test: Uptake of [125I]PNA tracers in cultured C6 cells; type: cell-based, rat; conditions: 2-24 h incubation, TCA-precipitable cellular fraction
Procedure: as §1

[3] = target: rat transferrin receptor (rat) (UniProt Q99376); test: cell-based or functional assay
[4] = test system: HD mRNA; test: HD RNase protection assay; type: binding, human; conditions: RNase T1/A digestion, PAGE autoradiography
Procedure: The sense RNA was synthesized with T3 RNA polymerase following linearization of the plasmid with EcoRI. The transcribed RNA was radiolabeled with [^32Pα]ATP to a specific activity of 0.22 μCi/pmol, as previously described (Boado and Pardridge (1994) Bioconj. Chem., 6: 406-410). For the RNAse protection assay, 0.6 pmol of biotinylated HD-PNA or biotinylated luciferase-PNA, with or without conjugation to 6.4 pmol of MAb-SA, was added to 10^5 CPM of [^32P]-labeled sense HD RNA (0.2 pmol) in 3 μl buffer (80 mM NaCl, 7 mM phosphate buffer, pH=7.5, 0.1% BSA), and annealed for 30 minutes at 42° C. Then 20 units RNAse Ti and 2.5 μg RNAse A were added to the samples in 17 μl of RNAse digestion buffer (0.3 M NaCl, 10 mM TRIS pH=7.5, 4 mM EDTA, 0.02% tRNA, 0.02% BSA) and incubated for 30 min at 37° C. RNA fragments were analyzed by 7 M urea/20% polyacrylamide gel electrophoresis following by autoradiography as described by Pardridge et al. (1995) Proc. Natl. Acad. Sci., USA, 92:5592-5596. Labeled RNA and PNAs were heat denatured for 2 minutes at 95° C. and then incubated on ice for 2 minutes immediately before the experiment or conjugation to MAb-SA.

[5] = test system: luciferase mRNA; test: Luciferase RNase protection assay; type: binding, firefly; conditions: RNase A/T1 protection
Procedure: These methods were identical to those described previously (Pardridge et al. (1995) Proc. Natl. Acad. Sci., USA, 92: 5592-5596). The luciferase RNA was prepared with a luciferase transcription plasmid, designated clone 760, which has been described previously (Tsukamoto et al. (1997) J. Neurochem. 68: 2587-2592). The sense RNA was synthesized with T7 RNA polymerase after linearization of the plasmid with EcoRI. The transcribed RNA was radiolabeled with [^32Pα]ATP, and the correct size of the radiolabeled transcribed sense RNA was determined by agarose/formaldehyde gel electrophoresis followed by film autoradiography. For the RNase protection assay, 0.5 pmol of biotinylated luciferase PNA with or without conjugation to 10 pmol of OX26/SA was added to 10 5 cpm of ^32P-labeled sense luciferase RNA (8 fmol) in 3 μl buffer (50 mM NaCl/5 mM Tris, pH 8/0.5 mM EDTA) and annealed for 30 min at 56° C. Then 15 units of RNase T1 and 0.4 units of RNase A were added to samples in […] of RNase digestion buffer m (Ambion, Austin, Tex.). RNA fragments were analyzed by 7 M urea/20% PAGE and autoradiography, as described previously (Pardridge et al. (1995) Proc. Natl. Acad. Sci., USA, 92: 5592-5596). Labeled RNA and PNA were heat denatured for 2 min at 95° C. and then incubated on ice for 2 min immediately before the experiment or conjugation to OX26/SA.

[6] = rat, in vivo, iv
Procedure: Either the unconjugated anti-luciferase PNA or the anti-luciferase PNA conjugated to OX26/SA was injected intravenously into ketamine/xylazine anesthetized adult male Sprague-Dawley rats (270-300 g) by using methods described previously (10). The dose of radioactivity in these experiments was 5 μCi/rat of PNA (0.02 nmol) conjugated to 20 μg/rat of OX26/SA (0.1 nmol).

[7] = test system: C6 experimental tumors; test: Film autoradiography in rats bearing control C6 tumors not transfected with the luciferase transgene; type: in vivo, rat; conditions: 100 μCi i.v., brain removed at 2 h
Procedure: The C6-790 cells were implanted in the caudate-putamen nucleus of male CD Fischer 344 rats (Harlan Breeders, Indianapolis, Ind.), weighing 250-275 g under stereotaxic guidance, as described previously (Kurihara et al. (1999) Bioconjugate Chem. 10: 502-511). The animals were examined 14 days later. To confirm expression of the luciferase transgene in the tumor in vivo, tumor extracts were prepared in Promega lysis buffer, and luciferase enzyme activity was measured with luciferin as substrate (Promega) by using a Berthold (Nashua, N.H.) luminometer, as described previously (Boado and Pardridge (1998) Mol. Brain Res. 59: 109-113). A luciferase standard curve was also assayed, and the enzyme activity was expressed as picograms of luciferase equivalent per milligram of tissue protein. The C6-790 cells were grown in tissue culture as described previously (Id.), and these cells were also extracted in Promega lysis buffer for measurement of luciferase activity in the cells grown in tissue culture before implantation in brain. Control experiments were performed with C6 cells described previously (13), and these cells were used to develop brain tumors exactly as described above, except these tumor cells were not transfected with the luciferase transgene.
The brain scans and autopsy stains for three different groups of adult Fischer rats bearing the C6-790 gliomas are shown in FIG. 5. […]

[8] = test system: luciferase mRNA; test: Film autoradiography in rats bearing C6-790 brain tumors; type: in vivo, rat; conditions: 100 μCi i.v., brain removed at 2 h, C6-790 gliomas in Fischer rats
Procedure: Fourteen days after implantation of C6-790 cells, the rats were anesthetized with ketamine and xylazine for i.v. injection of brain imaging agents, as described previously (Kurihara et al. (1999) Bioconjugate Chem. 10: 502-511). […] In these studies, each rat received 0.2 nmol of PNA and 40 μg (0.2 nmol) of OX26/SA. Each rat was also administered 20 mg of L-tyrosine and 2 mg of sodium iodide i.p. 15 min before the study to block brain uptake of radiolabeled metabolites such as [^125I]tyrosine or iodide. […]

rat transferrin receptor (rat), sequence (Q99376 whole entry): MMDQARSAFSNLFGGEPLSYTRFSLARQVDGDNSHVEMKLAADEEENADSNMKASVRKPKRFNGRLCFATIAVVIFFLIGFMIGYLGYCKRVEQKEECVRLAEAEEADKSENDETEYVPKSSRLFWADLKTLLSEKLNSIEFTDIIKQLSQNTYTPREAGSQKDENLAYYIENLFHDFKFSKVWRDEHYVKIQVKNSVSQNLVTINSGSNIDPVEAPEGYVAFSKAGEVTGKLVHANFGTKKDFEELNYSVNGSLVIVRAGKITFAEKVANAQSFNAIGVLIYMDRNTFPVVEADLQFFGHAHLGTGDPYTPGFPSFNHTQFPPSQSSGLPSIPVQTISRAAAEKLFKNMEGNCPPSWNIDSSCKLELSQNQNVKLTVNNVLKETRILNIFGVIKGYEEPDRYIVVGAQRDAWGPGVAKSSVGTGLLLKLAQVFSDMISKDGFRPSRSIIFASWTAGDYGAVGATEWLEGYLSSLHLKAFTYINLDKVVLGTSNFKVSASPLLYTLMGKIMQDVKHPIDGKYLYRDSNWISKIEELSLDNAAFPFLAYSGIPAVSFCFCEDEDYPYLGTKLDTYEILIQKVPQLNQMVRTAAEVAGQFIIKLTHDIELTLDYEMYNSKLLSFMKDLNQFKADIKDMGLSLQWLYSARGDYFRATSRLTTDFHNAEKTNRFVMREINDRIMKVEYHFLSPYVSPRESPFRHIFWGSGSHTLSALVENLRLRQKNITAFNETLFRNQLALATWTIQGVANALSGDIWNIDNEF

antirev PNA: control PNA antisense to the rev gene of HIV, sequence CTCCGCTTCTTCCTGCCA (all peptide nucleic acid (PNA); 125I-radiolabelled, conjugated to streptavidin-OX26 antibody, attachment not given here, further chemistry not fully specified) [reference compound]
uptake by C6-790 cells [1]: negligible
uptake by C6 cells [2]: negligible

conjugate of the OX26 mAb (mouse monoclonal antibody to the rat transferrin receptor) and recombinant streptavidin (from UniProt P22629 37-163)
uptake of [125I]PNA conjugate by cells after 24 h of incubation (ng PNA per milligram of protein) [3]: 10

antiluciferase PNA: biotinylated 16-mer peptide nucleic acid antisense to luciferase mRNA (CTTCCATTTTACCAAC), linkers, Tyr-Lys, amidated carboxy terminus; radioiodinated (all peptide nucleic acid (PNA); biotinylated, linkers, Tyr-Lys, amidated carboxy terminus, radioiodinated)
uptake by C6-790 cells [1]: negligible
hybridization to HD mRNA (RNase protected fragment) [4]: did not protect the RNA from nuclease digestion
hybridization to luciferase sense RNA (protection of 16 mer RNA fragments) [5]: hybridized to the luciferase sense RNA
uptake by C6 cells [2]: negligible
plasma clearance [6]: 7.2 ± 0.4 mL/min/kg
radioactivity in control C6 tumors [7]: no measurable radioactivity was detectable
imaging of luciferase gene expression in brain tumor [8]: no imaging of either normal brain or brain tumor
